From US10597388B2, “Pyridazinone herbicides” (FMC CORPORATION, priority 2014, dated 2020)

How the values were obtained:
Test in all cases: Test D controlled growth environment herbicide test, pre- and postemergence
Type in all cases: in vivo
[1] = tested on: wheat, winter (winter wheat, Triticum aestivum)
Procedure, shortened: (§1)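 Pre-emergence: seeds sown in silt loam soil were sprayed with compound in a non-phytotoxic solvent mix containing surfactant. Post-emergence: plants at 2 to 18 cm (1- to 4-leaf stage) in peat moss/vermiculite medium got the same formulation. Visual 0–100 rating versus controls after 14 to 21 d.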

[2] = tested on: ryegrass, Italian (Italian ryegrass, Lolium multiflorum)
Procedure, shortened: as §1

[3] = tested on: oilseed rape (Brassica napus)
Procedure, shortened: as §1

[4] = tested on: chickweed (common chickweed, Stellaria media)
Procedure, shortened: as §1

[5] = tested on: speedwell (bird's-eye speedwell, Veronica persica)
Procedure, shortened: as §1

[6] = tested on: deadnettle (henbit deadnettle, Lamium amplexicaule)
Procedure, shortened: as §1

[7] = tested on: blackgrass (Alopecurus myosuroides)
Procedure, shortened: as §1

[8] = tested on: Russian thistle (Salsola kali)
Procedure, shortened: as §1

[9] = tested on: wheat, spring (spring wheat, Triticum aestivum)
Procedure, shortened: as §1

[10] = tested on: mustard, wild (wild mustard, Sinapis arvensis)
Procedure, shortened: as §1

[11] = tested on: foxtail, green (green foxtail, Setaria viridis)
Procedure, shortened: as §1

[12] = tested on: oat, wild (wild oat, Avena fatua)
Procedure, shortened: as §1

[13] = tested on: bromegrass, downy (downy bromegrass, Bromus tectorum)
Procedure, shortened: as §1

[14] = Postemergence, 31 g ai/ha, scale 0 to 100 (0 no effect, 100 complete control)
[15] = Postemergence, 125 g ai/ha, visual rating on scale 0 (no effect) to 100 (complete control), 14 to 21 d
[16] = Postemergence, 250 g ai/ha, scale 0 to 100 (0 no effect, 100 complete control)
[17] = Preemergence, 125 g ai/ha, scale 0 to 100 (0 no effect, 100 complete control)
[18] = Preemergence, 250 g ai/ha, scale 0 to 100, 0 no effect, 100 complete control
[19] = postemergence, 62 g ai/ha, scale 0 to 100, 0 no effect, 100 complete control
[20] = Preemergence, 62 g ai/ha, scale 0 to 100 (0 no effect, 100 complete control)

Cc1nn(C)c(=O)c(-c2cccc3ccc(Br)cc23)c1O [Compound 126]
Wheat, Winter plant response rating [1, 14]: 0 | Plant response rating, Wheat, Winter [1, 15]: 0 | Plant response rating, Wheat, Winter [1, 16]: 0 | Plant response rating (scale of 0 to 100), Wheat, Winter ([1]; Preemergence, 31 g ai/ha): 0 | Plant response rating (scale of 0 to 100), Wheat, Winter ([1]; Preemergence, 62 g ai/ha): 0 | Plant response rating, Wheat, Winter [1, 17]: 0 | Plant response rating, Wheat, Winter [1, 18]: 0 | Plant response rating, Wheat, Winter [1, 19]: 0 | Ryegrass, Italian plant response rating [2, 14]: 85 | Plant response rating, Ryegrass, Italian [2, 15]: 90 | Plant response rating, Ryegrass, Italian [2, 16]: 90 | Plant response rating (scale of 0 to 100), Ryegrass, Italian ([2]; Preemergence, 31 g ai/ha): 75 | Plant response rating (scale of 0 to 100), Ryegrass, Italian ([2]; Preemergence, 62 g ai/ha): 90 | Plant response rating, Ryegrass, Italian [2, 17]: 98 | Plant response rating, Ryegrass, Italian [2, 18]: 100 | Plant response rating, Ryegrass, Italian [2, 19]: 90 | Oilseed Rape plant response rating [3, 14]: 60 | Plant response rating, Oilseed Rape [3, 15]: 75 | Plant response rating, Oilseed Rape [3, 16]: 85 | Plant response rating (scale of 0 to 100), Oilseed Rape ([3]; Preemergence, 31 g ai/ha): 0 | Plant response rating (scale of 0 to 100), Oilseed Rape ([3]; Preemergence, 62 g ai/ha): 0 | Plant response rating, Oilseed Rape [3, 17]: 15 | Plant response rating, Oilseed Rape [3, 18]: 90 | Plant response rating, Oilseed Rape [3, 19]: 65 | Chickweed plant response rating [4, 14]: 80 | Plant response rating, Chickweed [4, 15]: 100 | Plant response rating, Chickweed [4, 16]: 100 | Plant response rating (scale of 0 to 100), Chickweed ([4]; Preemergence, 31 g ai/ha): 70 | Plant response rating (scale of 0 to 100), Chickweed ([4]; Preemergence, 62 g ai/ha): 98 | Plant response rating, Chickweed [4, 17]: 100 | Plant response rating, Chickweed [4, 18]: 100 | Plant response rating, Chickweed [4, 19]: 98 | Speedwell plant response rating [5, 14]: 60 | Plant response rating, Speedwell [5, 15]: 100 | Plant response rating, Speedwell [5, 16]: 100 | Plant response rating (scale of 0 to 100), Speedwell ([5]; Preemergence, 31 g ai/ha): 70 | Plant response rating (scale of 0 to 100), Speedwell ([5]; Preemergence, 62 g ai/ha): 100 | Plant response rating, Speedwell [5, 17]: 100 | Plant response rating, Speedwell [5, 18]: 100 | Plant response rating, Speedwell [5, 19]: 65 | Deadnettle plant response rating [6, 14]: 40 | Plant response rating, Deadnettle [6, 15]: 80 | Plant response rating, Deadnettle [6, 16]: 85 | Plant response rating (scale of 0 to 100), Deadnettle ([6]; Preemergence, 31 g ai/ha): 0 | Plant response rating (scale of 0 to 100), Deadnettle ([6]; Preemergence, 62 g ai/ha): 45 | Plant response rating, Deadnettle [6, 17]: 70 | Plant response rating, Deadnettle [6, 18]: 80 | Plant response rating, Deadnettle [6, 19]: 70 | Blackgrass plant response rating [7, 14]: 15 | Plant response rating, Blackgrass [7, 15]: 30 | Plant response rating, Blackgrass [7, 16]: 45 | Plant response rating (scale of 0 to 100), Blackgrass ([7]; Preemergence, 31 g ai/ha): 25 | Plant response rating, Blackgrass [7, 20]: 45 | Plant response rating, Blackgrass [7, 17]: 55 | Plant response rating, Blackgrass [7, 18]: 65 | Plant response rating, Blackgrass [7, 19]: 20 | Russian Thistle plant response rating [8, 14]: 30 | Plant response rating, Russian Thistle [8, 15]: 80 | Plant response rating, Russian Thistle [8, 16]: 85 | Plant response rating (scale of 0 to 100), Russian Thistle ([8]; Preemergence, 31 g ai/ha): 0 | Plant response rating (scale of 0 to 100), Russian Thistle ([8]; Preemergence, 62 g ai/ha): 0 | Plant response rating, Russian Thistle [8, 17]: 5 | Plant response rating, Russian Thistle [8, 18]: 15 | Plant response rating, Russian Thistle [8, 19]: 40 | Wheat, Spring plant response rating [9, 14]: 0 | Plant response rating, Wheat, Spring [9, 15]: 0 | Plant response rating, Wheat, Spring [9, 16]: 5 | Plant response rating (scale of 0 to 100), Wheat, Spring ([9]; Preemergence, 31 g ai/ha): 0 | Plant response rating (scale of 0 to 100), Wheat, Spring ([9]; Preemergence, 62 g ai/ha): 0 | Plant response rating, Wheat, Spring [9, 17]: 0 | Plant response rating, Wheat, Spring [9, 18]: 0 | Plant response rating, Wheat, Spring [9, 19]: 0 | Mustard, Wild plant response rating [10, 14]: 80 | Plant response rating, Mustard, Wild [10, 15]: 90 | Plant response rating, Mustard, Wild [10, 16]: 100 | Plant response rating (scale of 0 to 100), Mustard, Wild ([10]; Preemergence, 31 g ai/ha): 60 | Plant response rating (scale of 0 to 100), Mustard, Wild ([10]; Preemergence, 62 g ai/ha): 70 | Plant response rating, Mustard, Wild [10, 17]: 70 | Plant response rating, Mustard, Wild [10, 18]: 98 | Plant response rating, Mustard, Wild [10, 19]: 80 | Foxtail, Green plant response rating [11, 14]: 10 | Plant response rating, Foxtail, Green [11, 15]: 25 | Plant response rating, Foxtail, Green [11, 16]: 25 | Plant response rating (scale of 0 to 100), Foxtail, Green ([11]; Preemergence, 31 g ai/ha): 20 | Plant response rating (scale of 0 to 100), Foxtail, Green ([11]; Preemergence, 62 g ai/ha): 20 | Plant response rating, Foxtail, Green [11, 17]: 25 | Plant response rating, Foxtail, Green [11, 18]: 45 | Plant response rating, Foxtail, Green [11, 19]: 10 | Oat, Wild plant response rating [12, 14]: 60 | Plant response rating, Oat, Wild [12, 15]: 80 | Plant response rating, Oat, Wild [12, 16]: 90 | Plant response rating (scale of 0 to 100), Oat, Wild ([12]; Preemergence, 31 g ai/ha): 65 | Plant response rating (scale of 0 to 100), Oat, Wild ([12]; Preemergence, 62 g ai/ha): 70 | Plant response rating, Oat, Wild [12, 17]: 80 | Plant response rating, Oat, Wild [12, 18]: 90 | Plant response rating, Oat, Wild [12, 19]: 70 | Bromegrass, Downy plant response rating [13, 14]: 5 | Plant response rating, Bromegrass, Downy [13, 15]: 20 | Plant response rating, Bromegrass, Downy [13, 16]: 25 | Plant response rating (scale of 0 to 100), Bromegrass, Downy ([13]; Preemergence, 31 g ai/ha): 0 | Plant response rating, Bromegrass, Downy [13, 20]: 0 | Plant response rating, Bromegrass, Downy [13, 17]: 20 | Plant response rating, Bromegrass, Downy [13, 18]: 30 | Plant response rating, Bromegrass, Downy [13, 19]: 10
